# Source: publication PMC5746060, “General and Modular Strategy for Designing Potent, Selective, and Pharmacologically Compliant Inhibitors of Rhomboid Proteases” (Cell Chemical Biology, 2017)
# “And” between values parts separate entries of the source, which are not always exact repeats. Equal entries are not always repeated. Where two headings read alike, the source gives them in different places. Starred links: 1 amine or outer side, 2 acyl side, 3 side chain; linkers in the order of their positions; H or OH if unused. Non-standard residues stand in square brackets, D forms with d. Residues, ends and D or L forms follow the SMILES beside them. *: point of attachment. NH(4-phenylbutyl) = c1ccc(CCCCN*)cc1; X1 = C[C@H](N[*:1])C(=O)C(=O)[*:2]; NHPhenethyl = c1ccc(CCN*)cc1
# How the values were obtained:
# rhomboid protease GlpG = target: T1, rhomboid protease GlpG (Escherichia coli, UniProt P09391); experiment: progress-curve analysis of slow-binding inhibition of GlpG (Ki, kon, koff, modality); type: biochemical; settings: for Ki: true inhibitory constant, equals Kiapp (non-competitive); for koff: Table 1
# T1 construct: made in house; host or cells: E. coli C41(DE3)
# Protocol: Figure 4 Mechanism of Inhibition of Rhomboid Protease GlpG by Peptidyl Ketoamides Analyzed Using Fluorogenic Transmembrane Peptide Substrates (A) Progress curves in the presence of increasing concentrations of compound 10 show biphasic character, which is typical for slow-binding inhibitors ([Copeland, 2013a], [Morrison, 1982]). GlpG (0.5 nM) was incubated with 25 μM substrate KSp93 in the presence of 0.05% (w/v) DDM and 0–1,333 nM 10. Fluorescence at 493 nm was followed to monitor substrate cleavage. (B) Biphasic progress curves characterized by an initial reaction rate (vi) and steady state reaction rate (vs). The progress curve at 1,333 nM compound 10 from the experiment in (A) is shown in detail, and both reaction rates obtained from non-linear regression into Equation (1) are shown as dotted lines. (C) Reversibility of inhibition by ketoamides was assessed by the rapid dilution method ([Harper et al., 1985], [Harper and Powers, 1985]). […] This solution was then rapidly diluted 100-fold either into the reaction buffer containing 10 μM substrate KSp64 ([Ticha et al., 2017]) (yielding final 10 nM inhibitor) or into the reaction buffer with 10 μM substrate KSp64 and 1,000 nM 10. For comparison, we used β-lactam L29 ([Pierrat et al., 2011]) at 1 μM and isocoumarin JLK6 ([Vinothkumar et al., 2010]) at 10 μM as known reversible and irreversible inhibitors of rhomboid proteases, respectively. Activity recovery was followed by measuring fluorescence over the course of 120 min with excitation at 553 nm and emission at 583 nm. (D) Progress curves of KSp93 cleavage at increasing concentrations of 10 measured under (A) were analyzed by non-linear regression as described for slow-binding inhibition ([Copeland, 2013a], [Morrison, 1982]) using GraphPad Prism version 7.02 for Windows (GraphPad Software, La Jolla, California, USA) to yield the rate constant for the onset of inhibition, kobs. […] Michaelis curves at the indicated inhibitor concentrations were measured by plotting vS (measured as in Figure 4B) against substrate concentration using 1 nM GlpG, 0.15% (w/v) DDM and highly sensitive substrate KSp96. […] The apparent inhibitory constants Kiapp (blue-red striped columns) and the constituent rate constants kon (red columns) and koff (blue columns) were determined from progress curve analysis as shown in (A and C) (note that Kiapp = koff/kon). […] TEXT PRINTED IN THE PICTURE: (D) compound 10: Ki^app = (123±47) nM; kon = (3.4±0.2)·10^-5 (nM^-1·min^-1); koff = (4.2±1.4)·10^-3 (min^-1) DOUBTS OF THE COPYIST ABOUT THIS PICTURE: compound 10, kon: the exponent is in very small print, read as -5 but could be -6 or -8 / compound 10, koff: the exponent is in very small print, read as -3 but could be -5 […]
# AarA = target: T2, AarA (Providencia stuartii, UniProt P46116); experiment: activity-based probe competition assay, rhomboid panel; type: biochemical; settings: 50 μM and 0.5 μM; outcompeted the ABP even at 500 nM
# T2 construct: made in house
# T2 sequence (P46116 1-281): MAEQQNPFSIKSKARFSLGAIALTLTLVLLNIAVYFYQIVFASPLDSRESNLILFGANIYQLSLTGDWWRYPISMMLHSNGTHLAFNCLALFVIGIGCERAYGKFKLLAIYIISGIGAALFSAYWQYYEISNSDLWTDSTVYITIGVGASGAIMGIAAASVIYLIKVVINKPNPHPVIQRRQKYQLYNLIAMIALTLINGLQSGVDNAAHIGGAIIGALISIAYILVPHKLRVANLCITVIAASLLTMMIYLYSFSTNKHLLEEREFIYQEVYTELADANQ
# Source text: Any enzyme inhibitors to be used as specific tools for cell biology or as starting points for drug development must show sufficient level of selectivity toward their intended target. This is particularly important for compounds that react with the catalytic nucleophile common to many serine hydrolases. […] To map the selectivity of peptidyl ketoamides more objectively and widely, we employed activity-based probe (ABP) competition assays that enable a more general and substrate-independent measurement of inhibitory potency, because they rely solely on the competition between a fluorescently labeled activity-based probe and the tested inhibitor ([Nguyen et al., 2015], [Serim et al., 2012]). The assays we employed used fluorophosphonate ABPs that target the catalytic serine of a wide-range of serine hydrolases ([Bachovchin et al., 2014]), including rhomboids ([Xue et al., 2012]), and are thus very practical general detection reagents even for serine hydrolases for which sensitive substrates might not be available.
# Figure 5 Selectivity of Peptidyl Ketoamides (A) Selectivity of compounds 9, 10, and 11 for nine rhomboid proteases was profiled using activity-based probe competition assay at 50 μM and 0.5 μM concentration. The upper limit of enzyme concentration was 0.4 μM. (B) Selectivity of compounds 9, 10, and 11 against human serine hydrolases was analyzed using EnPlex as described ([Bachovchin et al., 2014]).
# For inhibitor selectivity profiling against rhomboid proteases ([Wolf et al., 2015]), 400 ng of a purified protein preparation of E. coli GlpG was diluted in 30 μL of reaction buffer (20 mM HEPES, pH 7.4, with 0.05% (w/v) DDM). For other rhomboids, amounts were taken that gave similar labeling intensity during profiling. Rhomboids were incubated for 30 min at room temperature with the indicated concentration of compound, 100 μM DCI as positive control, or an equal volume of DMSO as negative control. Next, TAMRA-FP serine hydrolase probe (Thermo Fisher #88318) was added to a final concentration of 1 ìM and incubated for 2 h at 37°C in the dark. The reaction was stopped by addition of 4× Laemmli buffer and the reaction mixture was resolved on 15% SDS-PAGE. Gels were scanned on a Typhoon Trio+ and analyzed using ImageJ. The intensity of each rhomboid protease band calculated by ImageJ was normalized against its corresponding DMSO-treated counterpart (100% activity) to indicate the residual activity left after inhibition. The remaining activity was used to calculate the percentage of inhibition depicted in the heatmap. Selectivity profiles against human serine hydrolases were determined by EnPlex as described previously ([Bachovchin et al., 2014]).
# T1 sequence (P09391 whole entry): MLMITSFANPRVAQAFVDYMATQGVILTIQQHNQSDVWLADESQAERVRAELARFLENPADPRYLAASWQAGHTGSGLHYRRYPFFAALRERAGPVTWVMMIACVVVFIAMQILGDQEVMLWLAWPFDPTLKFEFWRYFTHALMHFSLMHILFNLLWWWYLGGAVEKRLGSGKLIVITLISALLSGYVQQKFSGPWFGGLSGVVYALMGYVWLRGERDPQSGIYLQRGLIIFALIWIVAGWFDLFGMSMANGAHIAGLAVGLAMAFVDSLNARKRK
Compound,Ki (rhomboid protease GlpG; Ki) [µM],koff (rhomboid protease GlpG) [s⁻¹],competition with ABP labeling of AarA (AarA),Ki (rhomboid protease GlpG; read-out: Ki)
"CC(=O)N[C@@H](CCCNC(=N)N)C(=O)N[C@H](C(=O)N[C@@H](CCCNC(=N)N)C(=O)N[C@@H](Cc1c[nH]cn1)C(=O)N[C@@H](C)C(=O)C(=O)NCCCCc1ccccc1)C(C)C [compound 11, Ac-RVRHA-CONH-phenylbutyl] (Ac-RVRH[X1]-{NH(4-phenylbutyl)})",0.045 ± 0.008,6.5e-05,potently competed,
"CC(=O)N[C@@H](CCCNC(=N)N)C(=O)N[C@H](C(=O)N[C@@H](CCCNC(=N)N)C(=O)N[C@@H](Cc1c[nH]cn1)C(=O)N[C@@H](C)C(=O)C(=O)NCCc1ccccc1)C(C)C [compound 9, Ac-RVRHA-CONH-phenylethyl] (Ac-RVRH[X1]-NHPhenethyl)",,0.0002,potently competed,0.219 µM and 0.22 µM
